Reference: paper PMC9731865, “Gambogic acid and juglone inhibit RNase P through distinct mechanisms” (The Journal of Biological Chemistry, 2022)

Biological target: T1, A. thaliana PRORP1 (Arabidopsis thaliana, UniProt Q66GI4)
T1 construct: made in house
T1 sequence (Q66GI4 77-572): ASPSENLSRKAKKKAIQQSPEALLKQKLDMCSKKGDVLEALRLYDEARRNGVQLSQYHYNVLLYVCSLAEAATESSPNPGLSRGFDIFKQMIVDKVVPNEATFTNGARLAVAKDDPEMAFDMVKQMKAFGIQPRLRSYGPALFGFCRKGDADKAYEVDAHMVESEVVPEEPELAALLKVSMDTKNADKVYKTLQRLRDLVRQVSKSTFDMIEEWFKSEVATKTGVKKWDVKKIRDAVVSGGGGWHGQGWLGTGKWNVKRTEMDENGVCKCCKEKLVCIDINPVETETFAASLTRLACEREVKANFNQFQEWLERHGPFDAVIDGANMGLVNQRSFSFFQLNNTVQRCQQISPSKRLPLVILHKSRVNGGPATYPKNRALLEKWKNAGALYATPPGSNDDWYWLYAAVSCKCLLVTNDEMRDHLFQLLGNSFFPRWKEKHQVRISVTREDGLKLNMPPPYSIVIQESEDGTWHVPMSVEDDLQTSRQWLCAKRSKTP
Assay: FP cleavage assay, PRORP1 dose response
Type: biochemical
Conditions: for activity at 6.25 µM: 6.25 μM of inhibitor, FP cleavage assay, read-out: PRORP1 Activity (%); for IC50: 30 min preincubation, 0.3 nM PRORP1, 800 nM pre-tRNA, 25 °C, apparent IC50 for juglone
Protocol: Compounds gambogic acid (A) and juglone (B) were incubated with enzyme at double the reaction concentration for 30 min prior to the addition of an equal volume of substrate to initiate the reaction. PRORP1 reactions (shown in green) were performed with 0.3 nM PRORP1 and 800 nM pre-tRNA containing 40 nM Fl-pre-tRNA at 25 °C in 30 mM MOPS pH 7.8, 5 mM MgCl2, 100 mM NaCl, 1 mM TCEP, 500 nM (12 μg/ml) yeast tRNA, 5 mM spermidine, 6.65 μg/ml BSA, and 0.01% NP-40. MRPP1/2/3 reactions (shown in red) were performed using 50 nM MRPP3, 500 nM MRPP1/2, 500 nM pre-tRNA containing 40 nM Fl-pre-tRNA at 37 °C in 50 mM MOPS (pH 7.8), 1 mM TCEP, 4.5 mM MgCl2, and 100 mM NaCl. B. subtilis RNase P reactions (shown in blue) were performed using 20 nM RNase P and 500 nM pre-tRNA containing 40 nM Fl-pre-tRNA at 37 °C in 50 mM Tris, pH 7.2, 5 mM MgCl2, 100 mM KCl, 500 nM (12 μg/ml) yeast tRNA, 20 mM dithiothreitol (DTT), 10 mM spermidine, and 0.01% NP-40. Equation 1 was fit to each dataset.
The activity of PRORP1 catalyzed pre-tRNA cleavage was measured by monitoring the fluorescence anisotropy (FA) signal (λex = 485 nm and λem = 535 nm) over time at 25 °C in buffer conditions optimized for a high-throughput format, 30 mM MOPS pH 7.8, 5 mM MgCl2, 100 mM NaCl, 1 mM TCEP, 500 nM (12 μg/ml) yeast tRNA, 5 mM spermidine, 6.65 μg/ml BSA, and 0.01% NP-40. Yeast tRNA^mix (Roche) was used to reduce the number of compounds that inhibit PRORP1 activity by targeting tRNA. Prior to each reaction, pre-tRNA was heated for 3 min at 95 °C to unfold the RNA and refolded in the reaction buffer at room temperature (25 °C) for 30 min. Reactions were performed in black, 96-well plates (Corning Incorporation, #3686) using a TECAN plate-reader (Infinite F500, G-factor = 1.05) at 25 °C, and the FA values recorded. Reactions were initiated with the addition of substrate to enzyme. Experiments were done in the presence of excess substrate. The concentration of enzyme was 0.3 to 5 nM, the concentration of labeled substrate (Fl-pre-tRNA) was 40 nM, and the concentration of pre-tRNA was 120 to 4000 nM. The concentration of Fl-pre-tRNA was held constant in all reactions.
The dose response was measured using the FP assay as described above with varying concentrations of compound. Compounds were incubated with PRORP1 at twice the reaction concentration for 30 min prior to the addition of equal volumes of substrate to initiate the reaction. Experiments were done under multiple turnover conditions (same buffer conditions as the FP assay). […] PRORP1 activity was determined as a function of inhibitor concentration, and Equation 1 was fit to the data to determine the IC50 value. The standard error of the mean (SEM) is reported from the fit.(1) Activity(%)=100/1+([I]/IC50)^n

Question: What does the source list for `O=C1C=CC(=O)c2c(O)cccc21` [juglone, 5-hydroxy-1,4-naphthalenedione]?
Answer: activity at 6.25 µM: 20.2%; IC50: 2.1 ± 0.04 µM

Question: Which results are given for `CC(C)=CCC[C@]1(C)C=Cc2c(O)c3c(c(CC=C(C)C)c2O1)O[C@]12C(=C[C@@H]4C[C@H]1C(C)(C)O[C@@]2(C/C=C(/C)C(=O)O)C4=O)C3=O` [gambogic acid]?
Answer: activity at 6.25 µM: 29.1%; IC50: 1.01 ± 0.04 µM
